In US10597388B2, “Pyridazinone herbicides” (FMC CORPORATION, priority 2014, dated 2020):

Tests used:
Format in all cases: in vivo
[1] = system: pigweed (Amaranthus retroflexus); assay: Test C greenhouse herbicide test, pre- and postemergence
Summary of the method: (§1)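 Seeds sown in loam–sand blend treated preemergence; plants in peat-based medium sprayed postemergence at 2–18 cm (1- to 4-leaf stage); chemicals in non-phytotoxic solvent with surfactant. Greenhouse 13–15 d, then visual rating versus controls on 0–100 scale (0 no effect, 100 complete control).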

[2] = system: morningglory (Ipomoea coccinea); assay: as above
Summary of the method: as §1

[3] = system: blackgrass (Alopecurus myosuroides); assay: as above
Summary of the method: as §1

corn (Zea mays) = assay: as above
Summary of the method: as §1

[4] = system: ryegrass, Italian (Italian ryegrass, Lolium multiflorum); assay: as above
Summary of the method: as §1

[5] = system: velvetleaf (Abutilon theophrasti); assay: as above
Summary of the method: as §1

[6] = system: pigweed (Amaranthus retroflexus); assay: Test A greenhouse herbicide test, pre- and postemergence
Summary of the method: (§2)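 Seeds in loam–sand blend received a preemergence directed soil spray; plants at 2–10 cm, one- to two-leaf stage, received postemergence sprays. Compounds in a non-phytotoxic solvent with surfactant. After about 10 d in a greenhouse, injury rated visually versus untreated controls on a 0–100 scale (100 = complete control).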

kochia (Kochia scoparia) = assay: as above
Summary of the method: as §2

[7] = system: wheat (Triticum aestivum); assay: as above; settings: Postemergence
Summary of the method: as §2

[8] = system: ragweed (common ragweed, Ambrosia elatior); assay: as above
Summary of the method: as §2

[9] = system: foxtail, giant (giant foxtail, Setaria faberii); assay: as above
Summary of the method: as §2

[10] = Postemergence, 125 g ai/ha, scale 0 to 100, 0 is no effect, 100 is complete control
[11] = Postemergence, 250 g ai/ha, scale 0 to 100, 0 no effect, 100 complete control, 13 to 15 d
[12] = Preemergence, 31 g ai/ha, scale 0 to 100, 0 is no effect, 100 is complete control
[13] = Preemergence, 62 g ai/ha, scale 0 to 100, 0 is no effect, 100 is complete control
[14] = Preemergence, 125 g ai/ha, scale 0 to 100, 0 is no effect, 100 is complete control
[15] = Preemergence, 250 g ai/ha, scale 0 to 100, 0 no effect, 100 complete control
[16] = postemergence, 62 g ai/ha, scale 0 to 100, 0 no effect, 100 complete control
[17] = Postemergence, 31 g ai/ha, 0 to 100 scale (0 no effect, 100 complete control)
[18] = Postemergence, 125 g ai/ha, 0 to 100 scale where 0 is no effect and 100 is complete control
[19] = Postemergence, 500 g ai/ha, visual rating after approx. 10 d, 0 to 100 scale (0 no effect, 100 complete control)
[20] = Preemergence, 125 g ai/ha, 0 to 100 scale where 0 is no effect and 100 is complete control
[21] = Preemergence, 500 g ai/ha, 0 to 100 scale where 0 is no effect and 100 is complete control

COC(=O)Oc1cnn(C)c(=O)c1-c1c(C)sc2ccccc12 [Compound 97]
Plant response rating, Pigweed [1, 10]: 60
Plant response rating, Pigweed [1, 11]: 75
Plant response rating, Pigweed [1, 12]: 5
Plant response rating, Pigweed [1, 13]: 35
Plant response rating, Pigweed [1, 14]: 65
Pigweed plant response rating [1, 15]: 65
Pigweed plant response rating [1, 16]: 50
Plant response rating, Morningglory [2, 10]: 30
Plant response rating, Morningglory [2, 11]: 30
Plant response rating, Morningglory [2, 12]: 25
Plant response rating, Morningglory [2, 13]: 30
Plant response rating, Morningglory [2, 14]: 20
Morningglory plant response rating [2, 15]: 30
Morningglory plant response rating [2, 16]: 40
Blackgrass plant response rating [3, 17]: 0
Plant response rating, Blackgrass [3, 10]: 0
Plant response rating, Blackgrass [3, 11]: 0
Plant response rating, Blackgrass [3, 12]: 0
Plant response rating, Blackgrass [3, 13]: 0
Plant response rating, Blackgrass [3, 14]: 0
Blackgrass plant response rating [3, 15]: 5
Blackgrass plant response rating [3, 16]: 0
Corn plant response rating (corn (Zea mays); [17]): 0
Plant response rating, Corn (corn (Zea mays); [10]): 0
Plant response rating, Corn (corn (Zea mays); [11]): 5
Plant response rating, Corn (corn (Zea mays); [12]): 5
Plant response rating, Corn (corn (Zea mays); [13]): 0
Plant response rating, Corn (corn (Zea mays); [14]): 0
Corn plant response rating (corn (Zea mays); [15]): 0
Corn plant response rating (corn (Zea mays); [16]): 0
Plant response rating, Ryegrass, Italian [4, 10]: 50
Plant response rating, Ryegrass, Italian [4, 11]: 55
Plant response rating, Ryegrass, Italian [4, 12]: 5
Plant response rating, Ryegrass, Italian [4, 13]: 5
Plant response rating, Ryegrass, Italian [4, 14]: 30
Ryegrass, Italian plant response rating [4, 15]: 30
Ryegrass, Italian plant response rating [4, 16]: 30
Plant response rating, Velvetleaf [5, 10]: 10
Plant response rating, Velvetleaf [5, 11]: 30
Plant response rating, Velvetleaf [5, 12]: 0
Plant response rating, Velvetleaf [5, 13]: 0
Plant response rating, Velvetleaf [5, 14]: 20
Velvetleaf plant response rating [5, 15]: 30
Velvetleaf plant response rating [5, 16]: 20
Plant response rating, Pigweed [6, 18]: 90
Plant response rating, Pigweed [6, 19]: 100
Pigweed plant response rating [6, 20]: 100
Plant response rating, Pigweed [6, 21]: 100
Plant response rating, Kochia (kochia (Kochia scoparia); [18]): 90
Plant response rating, Kochia (kochia (Kochia scoparia); [19]): 100
Kochia plant response rating (kochia (Kochia scoparia); [20]): 80
Plant response rating, Kochia (kochia (Kochia scoparia); [21]): 100
Plant response rating, Wheat ([7]; 125 g ai/ha, 0 to 100 scale where 0 is no effect and 100 is complete control): 20
Plant response rating, Wheat ([7]; 500 g ai/ha, visual rating after approx. 10 d, 0 to 100 scale (0 no effect, 100 complete control)): 80
Plant response rating, Ragweed [8, 18]: 90
Plant response rating, Ragweed [8, 19]: 100
Ragweed plant response rating [8, 20]: 90
Plant response rating, Ragweed [8, 21]: 100
Plant response rating, Foxtail, Giant [9, 18]: 80
Plant response rating, Foxtail, Giant [9, 19]: 100
Foxtail, Giant plant response rating [9, 20]: 60
Plant response rating, Foxtail, Giant [9, 21]: 100
